Test results taken from patent publication US5480882A, “Benzoxazinone and benzothiazinone derivatives having cardiovascular activity” (Italfarmaco S.p.A., priority 1992, dated 1996).
Counter-ions that a name gives are not always drawn.

Assays:
[1] = system: Arg-vasopressin induced coronary spasm, anaesthetized Sprague Dawley rats; assay: In vivo antianginal activity, Arg-vasopressin-induced coronary spasm (T-wave increase) in anaesthetized rats; conditions: Rattus norvegicus, iv, 4 increasing doses; 50% inhibition of T-wave increase induced by i.v. Arg-vasopressin in anaesthetized rats
Description: The in vivo antianginal activity was determined on anaesthetized Sprague Dawley rats of weight 350-400 g, in accordance with the method of M. Leitold et al., Arzeim. Forsch., 36, 1454 1986. The test was carried out by intravenously administering to the animals one I.U./Kg, equivalent to […] of Arg-vasopressin, thus inducing a reproducible coronary spasm that may be electrocardiographically monitored by an increase of the T-wave. The animals were treated intravenously with 4 increasing doses of the compounds of the present invention to measure their ED50 (i.e., the dose giving 50% inhibition of the T-wave increase).

[2] = system: rabbit aorta strip contracted with noradrenaline; assay: Vasodilative activity in vitro, inhibition of noradrenaline-induced contraction of rabbit aorta strip; assay type: cell-based; conditions: Oryctolagus cuniculus; 50% inhibition of noradrenaline contraction of rabbit aorta strip
Description: The vasodilative activity of the compounds of the present invention were determined by testing of a rabbit aorta strip contracted with noradrenaline. Using the method described by K. Murakami et al. Eur. J. Pharmacol., 141, 195, 1987., IC50 values (i.e. the micromolar (μM) concentrations of active substances causing a 50% inhibition of the contraction of the aorta strip), were determined.

Compound | IC50 [2] | ED50 [1]
O=C1c2cc([N+](=O)[O-])ccc2OCN1CCO[N+](=O)[O-] [Example 1, 2,3-Dihydro-3-(2'-nitrooxyethyl)-6-nitro,4H-1,3-benzoxazin-4-one] | 21 nM | 0.0637 mg/kg
CC(=O)Nc1ccc2c(c1)C(=O)N(CCO[N+](=O)[O-])CO2 [Example 2, 6-Acetamido-2,3-dihydro-3-(2'-nitrooxyethyl)-4H-1,3-benzoxazin-4-one] | 270 nM | 0.021 mg/kg
CN(C)C=Nc1ccc2c(c1)C(=O)N(CCO[N+](=O)[O-])CO2 [Example 3, 2,3-Dihydro-6-(N',N',-dimethyl-N-formimido)-3-(2'-nitro-oxyethyl)-4H-1,3-benzoxazin-4-one-HCl] | 640 nM | 0.0097 mg/kg
O=C1c2cc(O)ccc2OCN1CCO[N+](=O)[O-] [Example 5, 2,3-Dihydro-6-hydroxy-3-(2'-nitrooxyethyl)-4H-1,3-benzoxazin-4-one] | 96 nM | –

The remaining compounds from weak to strong by IC50 [2], led by results:

IC50 [2] | Compound | ED50 [1]
71 nM | N#Cc1ccc2c(c1)C(=O)N(CCO[N+](=O)[O-])CO2 [Example 4, 6-Ciano-2,3-dihydro-3-(2'-nitrooxyethyl)-4H-1.3-benzoxazin-4-one] | 0.0115 mg/kg
57 nM | O=C1c2ccc(O)cc2OCN1CCO[N+](=O)[O-] [Example 6, 2,3-Dihydro-7-hydroxy-3-(2'-nitrooxyethyl)-4H-1,3-benzoxazin-4-one] | –
